Source: PMC5612656, “In vitro and in vivo effects of 2,4 diaminoquinazoline inhibitors of the decapping scavenger enzyme DcpS: Context-specific modulation of SMN transcript levels” (PLoS ONE, 2017)

Tested on: spinal cord transcriptome
Test: RNA-Seq of spinal cord tissue from 2B/- and 2B/+ mice
Format: in vivo, mouse
Conditions: 2B-Veh vs 2B-RG3039

## Nc1nc(N)c2c(OCC3CCN(Cc4c(Cl)cccc4Cl)CC3)cccc2n1 [RG3039]
  log2(fold-change) Gm10309: -1.704
  log2(fold-change) Gm11681: -1.051
  log2(fold-change) Gm13066: -1.415
  log2(fold-change) Gm16316: -0.9137
  log2(fold-change) Gm16958: -0.6452
  log2(fold-change) Gm21984: -0.8301
  log2(fold-change) Gm26645: 0.5748
  log2(fold-change) Gp2: 1.536
  log2(fold-change) Gpr50: 0.6598
  log2(fold-change) Gpx3: -0.9006
  log2(fold-change) Gsg2: 1
  log2(fold-change) Gstm1: -0.9261
  log2(fold-change) Gsx1: 1.082
  log2(fold-change) Hbegf: 0.4821
  log2(fold-change) Heph: -0.6747
  log2(fold-change) Hes5: 1.011
  log2(fold-change) Heyl: 0.7294
  log2(fold-change) Hif3a: -1.3266
  log2(fold-change) Hist1h1c: -0.9093
  log2(fold-change) Hist1h4h: -0.4829
  log2(fold-change) Hpgd: 1.149
  log2(fold-change) Hr: -1.031
  log2(fold-change) Hsf3: -1.087
  log2(fold-change) Iapp: -0.9349
  log2(fold-change) Id3: 0.7631
  log2(fold-change) Ier5: 0.6487
  log2(fold-change) Igf1: 0.4613
  log2(fold-change) Igsf1: 0.614
  log2(fold-change) Il12rb1: -1.3
  log2(fold-change) Itga6: 0.6885
  log2(fold-change) Itgb3: 0.5631
  log2(fold-change) Kcna5: -1.0224
  log2(fold-change) Kcne4: 0.8611
  log2(fold-change) Kdelr3: 0.5886
  log2(fold-change) Kdm4dl: -1.255
  log2(fold-change) Kif2c: 0.8365
  log2(fold-change) Klf15: -1.065
  log2(fold-change) Klhl30: 0.8074
  log2(fold-change) LRRC8A: -0.627
  log2(fold-change) Loxl1: 0.7115
  log2(fold-change) Lrrc8a: -0.9652
  log2(fold-change) Map3k6: -2.942
  log2(fold-change) Matn1: -1.5615
  log2(fold-change) Mcm6: 0.8445
  log2(fold-change) Mertk: -0.6404
  log2(fold-change) Mex3a: 0.9304
  log2(fold-change) Mgmt: -0.5604
  log2(fold-change) Mki67: 0.4816
  log2(fold-change) Mmp14: 0.9436
  log2(fold-change) Mrgprd: 1.807
  log2(fold-change) Mrpl41: -1.248
  log2(fold-change) Mycn: 0.9874
  log2(fold-change) Ncan: 0.7942
  log2(fold-change) Ncapg: 0.8309
  log2(fold-change) Neil3: 0.7885
  log2(fold-change) Nes: 0.5009
  log2(fold-change) Notum: 0.8827
  log2(fold-change) Nusap1: 0.4877
  log2(fold-change) Otoa: -1.049
  log2(fold-change) Pappa: 0.5579
  log2(fold-change) Pbk: 0.5785
  log2(fold-change) Pdk4: -1.799
  log2(fold-change) Per1: -0.8684
  log2(fold-change) Phactr3: -0.7376
  log2(fold-change) Phyhd1: -0.7387
  log2(fold-change) Pilrb2: -1.585
  log2(fold-change) Pirt: 0.7729
  log2(fold-change) Pmaip1: -0.9334
  log2(fold-change) Pmp2: 1.429
  log2(fold-change) Pnpla2: -1.095
  log2(fold-change) Pnpla7: -0.626
  log2(fold-change) Polr3e: -1.443
  log2(fold-change) Ppp1r1b: -1.252
  log2(fold-change) Prc1: 0.5813
  log2(fold-change) Prodh: -0.8352
  log2(fold-change) Pxmp2: -0.9238
  log2(fold-change) Pycr1: 1.135
  log2(fold-change) Rab11fip1: -0.4528
  log2(fold-change) Rasl2-9: -0.693
  log2(fold-change) Reg3b: 1.9386
  log2(fold-change) Rnase1: -0.7662
  log2(fold-change) Rorc: -0.6702
  log2(fold-change) Rsad2: 0.8406
  log2(fold-change) Scn10a: 1.7
  log2(fold-change) Scrg1: -0.8008
  log2(fold-change) Sdpr: -0.7672
  log2(fold-change) Sds: -2.356
  log2(fold-change) Serpinb5: -1.293
  log2(fold-change) Serpinh1: 0.3762
  log2(fold-change) Sgk1: -1.812
  log2(fold-change) Shroom1: -0.6614
  log2(fold-change) Slc13a3: 0.4446
  log2(fold-change) Slc13a5: 0.8562
